{"source": "patent US20220387457A1", "about": "(Qlaris Bio, Inc., priority 2020, published 2022)", "key": {"[1]": {"tested_on": "3D-glaucomatous human trabecular meshwork/Schlemm's canal tissue model", "assay": "Outflow facility by perfusion in 3D-glaucomatous human trabecular meshwork/Schlemm's canal constructs", "assay_type": "cell-based", "conditions": "levcromakalim 1 μM, TGF-β2 treated constructs, 4 donors, vs TGF-β2 (P<0.0001) or Y-27632 (P<0.05)", "procedure": "Bioengineered 3D conventional outflow tract constructs using 4 donors (ages 47-91) were treated with […] (5 ng/mL) for 6 days. […] Protein expression of α-smooth muscle actin (α-SMA), CD31, endothelin-I, fibronectin, VE-cadherin, phospho-eNOS and total eNOS was analyzed via western blot. Cellular expression of α-SMA, fibronectin, phospho-eNOS and total eNOS was determined by immunocytochemistry and confocal microscopy. Statistical significance was determined by one-way ANOVA with a Tukey's multiple comparisons test, or by two-way ANOVA."}, "[2]": {"tested_on": "normotensive hound dogs (IOP)", "assay": "Dose response of CKLP1 on IOP in hound dogs", "assay_type": "in vivo, hound dog", "conditions": "for IOP lowering: 5 consecutive days, vs baseline", "procedure": "In order to determine the optimal topical ocular dose of CKLP1 for subsequent pharmacokinetic studies, hound dogs (n=3) were treated with four different concentrations of CKLP1 (5 mM, 10 mM, 15 mM and 20 mM) once daily for 5 consecutive days. […] No difference in IOP reduction was noted between the 10 and 15 mM doses (p=0.57). To utilize the lowest dose concentration with effective IOP reduction, a 50 μL topical ocular administration of 10 mM CKLP1 was selected as the optimal dose for all subsequent experiments.\nIOP was measured three times each day at times that corresponded to 1 hour, 4 hours and 23 hours post treatment. The average of the measurements at three time points on any given day was recorded as the daily IOP.\nFor the dose response study, baseline IOP measurements were obtained and recorded (three consecutive days prior to treatment). One eye of each dog was treated with a 50 μL topical ocular administration of 5 mM CKLP1 and the contralateral eye was treated with 10 mM CKLP1 once daily for 5 consecutive days. After 5 days, the eyes that received 5 mM CKLP1 was treated with 15 mM CKLP1 while the eye with 10 mM CKLP1 received 20 mM CKLP1. IOPs were measured every day at times corresponding to 1, 4, and 23 hours post treatment. For all experiments, the right eye was used as control while the left eye was selected as the treatment eye."}, "[3]": {"target": "T1, placenta-derived human alkaline phosphatase (Homo sapiens, UniProt P05187)", "T1 construct": "varying concentrations of placenta-derived human alkaline phosphatase; from tissue; host or cells: human placenta", "T1 sequence (P05187 23-506)": "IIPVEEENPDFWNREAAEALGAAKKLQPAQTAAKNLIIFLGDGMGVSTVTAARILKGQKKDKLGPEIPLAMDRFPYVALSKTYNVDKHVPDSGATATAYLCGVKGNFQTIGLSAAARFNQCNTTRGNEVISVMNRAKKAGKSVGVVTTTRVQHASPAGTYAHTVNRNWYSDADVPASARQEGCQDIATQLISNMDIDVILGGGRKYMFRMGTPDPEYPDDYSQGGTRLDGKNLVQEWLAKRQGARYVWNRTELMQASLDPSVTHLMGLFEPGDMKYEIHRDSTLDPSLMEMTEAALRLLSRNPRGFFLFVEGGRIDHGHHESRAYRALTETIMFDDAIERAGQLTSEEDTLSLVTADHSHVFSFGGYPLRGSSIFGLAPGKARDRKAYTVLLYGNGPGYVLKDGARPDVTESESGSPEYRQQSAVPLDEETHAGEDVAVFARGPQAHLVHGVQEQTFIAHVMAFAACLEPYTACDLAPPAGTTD", "assay": "Dose- and time-dependent conversion of CKLP1 to levcromakalim by placenta-derived human alkaline phosphatase, pH 10", "assay_type": "biochemical", "procedure": "To activate CKLP1, the phosphate is hydrolyzed from phosphatases to produce leveromakalim, the active moiety that can open (activate) ATP-sensitive potassium channels.\nIn the first experiment, a fixed concentration of CKLP1 solution was incubated with varying concentrations of placenta-derived human alkaline phosphatase. To accomplish this, placenta-derived human alkaline phosphatase (0.0002 U) in a 100-μL volume was added to each of thirteen 1.5-mL tubes. To each tube, CKLP1 was then added at a fixed concentration [10 mM (0.4%)]. Tubes were inverted twice and incubated in a water bath at 37° C. At each of 13 different time points (0, 1, 2.5, 5, 15, and 30 minutes and at 1, 2, 4, 8, 24, 48, and 72 hours), a single tube was removed, and the reaction was stopped by the addition of 2 volumes (200 μL) of acetonitrile. Samples were stored at −80° C. The experiment was repeated with 10 mM CKLP1 (0.4%) in the presence of placenta-derived human alkaline phosphatase at concentrations of 0.002 U, 0.02 U, and 0.2 U. All assays were performed at pH 10.\nIn a second experiment, a fixed concentration of placenta-derived human alkaline phosphatase was incubated with varying concentrations of CKLP1. To accomplish this, a fixed concentration of 0.02 U of placenta-derived human alkaline phosphatase in a 100-μL volume was added to each of thirteen 1.5-mL tubes. To each tube, CKLP1 was then added [0.01 mM (0.0004%)]. Tubes were inverted twice and incubated in a water bath at 37° C. At each of 13 different time points (0, 1, 2.5, 5, 15, and 30 minutes and at 1, 2, 4, 8, 24, 48, and 72 hours), a single tube was removed and the reaction was stopped by the addition of 2 volumes (200 μL) of acetonitrile. Samples were stored at −80° C. The experiment was repeated with the same concentration of placenta-derived human alkaline phosphatase (0.02 U) and various concentrations of CKLP1 [0.1 mM (0.004%), 1 mM (0.04%), 10 mM (0.4%), 20 mM (0.8%), and 40 mM (1.6%)]. All assays were performed at pH 10."}, "acid phosphatase": {"tested_on": "acid phosphatase", "assay": "Conversion of CKLP1 by acid phosphatase, LC/MS-MS, pH 7.4", "assay_type": "biochemical, human", "conditions": "up to 2 hours", "procedure": "(§1) Conversion of CKLP1 (200 μM-5.0 mM) was examined by LC/MS-MS following incubation at pH 7.4 with either human alkaline phosphatase (ALP), acid phosphatase, or 5′-nucleotidase (2.01 nM-1.0 μM) for up to 2 hours."}, "[4]": {"tested_on": "Dutch-belted pigmented rabbits (IOP)", "conditions": "previously reported; cited from earlier work"}, "5′-nucleotidase": {"tested_on": "5′-nucleotidase", "assay": "Conversion of CKLP1 by 5′-nucleotidase, LC/MS-MS, pH 7.4", "assay_type": "biochemical, human", "conditions": "up to 2 hours", "procedure": "as §1"}, "[5]": {"tested_on": "African green monkeys (systemic blood pressure)", "assay": "Systemic blood pressure in African green monkeys during 7-day topical CKLP1", "assay_type": "in vivo, African green monkey", "conditions": "10 mM CKLP1, 7 days", "procedure": "To further validate the IOP lowering effects of CKLP1 in large animal models, one eye of five African green monkeys was treated with topical ocular administration of 10 mM CKLP1, while the contralateral eye received vehicle (PBS). Baseline IOP in control and treated eyes were 20.1±1.8 mmHg and 21.9±2.5 mmHg, respectively.\nFor treatment days, 10 mM CKLP1 (dissolved in PBS) was added to one eye of each monkey in a 50 μl topical ocular administration, once daily, for 7 consecutive days, while the contralateral eye received a 50 μl ocular administration of vehicle (PBS)."}, "mice (IOP)": {"tested_on": "mice (IOP)", "conditions": "previously reported; cited from earlier work"}}, "data": [{"smiles": "CC1(C)Oc2ccc(C#N)cc2[C@@H](N2CCCC2=O)[C@@H]1O", "note": "[Levcromakalim, levcromakalim, reference compound]", "values": [{"measurement": "outflow facility (hydraulic conductivity)", "setting": "[1]", "result": "significantly improved outflow facility"}, {"measurement": "outflow facility (hydraulic conductivity)", "setting": "[1]; listed as Leveromakalim", "result": "significantly increased outflow facility"}]}, {"smiles": "CC1(C)Oc2ccc(C#N)cc2[C@@H](N2CCCC2=O)[C@@H]1OP(=O)(O)O", "note": "[CKLP1]", "values": [{"measurement": "IOP lowering, all concentrations", "setting": "[2]; 5 mM, 10 mM, 15 mM and 20 mM, p≤0.01", "result": "significant IOP lowering"}, {"measurement": "IOP lowering", "setting": "[2]; 10 mM CKLP1 topical once daily", "result": "2.3±0.5", "unit": "mmHg"}, {"measurement": "IOP lowering", "setting": "[2]; 15 mM CKLP1 topical once daily", "result": "2.5±0.4", "unit": "mmHg"}, {"measurement": "conversion rate of CKLP1 to levcromakalim at 24 hours", "setting": "[3]; ALP 0.02 U/100 μL, CKLP1 0.01 mM", "result": 26.9, "unit": "%"}, {"measurement": "conversion rate of CKLP1 to levcromakalim at 24 hours", "setting": "[3]; ALP 0.02 U/100 μL, CKLP1 0.1 mM", "result": 20.0, "unit": "%"}, {"measurement": "conversion rate of CKLP1 to levcromakalim at 24 hours", "setting": "[3]; ALP 0.02 U/100 μL, CKLP1 1 mM", "result": 5.2, "unit": "%"}, {"measurement": "conversion rate of CKLP1 to levcromakalim at 24 hours", "setting": "[3]; ALP 0.02 U/100 μL, CKLP1 10 mM", "result": 4.9, "unit": "%"}, {"measurement": "conversion rate of CKLP1 to levcromakalim at 24 hours", "setting": "[3]; ALP 0.02 U/100 μL, CKLP1 20 mM", "result": 3.2, "unit": "%"}, {"measurement": "conversion rate of CKLP1 to levcromakalim at 24 hours", "setting": "[3]; ALP 0.02 U/100 μL, CKLP1 40 mM", "result": 1.7, "unit": "%"}, {"measurement": "conversion rate of CKLP1 to levcromakalim at 24 hours", "setting": "[3]; CKLP1 10 mM, ALP 0.0002 U/100 μL", "result": 0.4, "unit": "%"}, {"measurement": "conversion rate of CKLP1 to levcromakalim at 24 hours", "setting": "[3]; CKLP1 10 mM, ALP 0.002 U/100 μL", "result": 1.3, "unit": "%"}, {"measurement": "conversion rate of CKLP1 to levcromakalim at 24 hours", "setting": "[3]; CKLP1 10 mM, ALP 0.02 U/100 μL", "result": 4.8, "unit": "%"}, {"measurement": "conversion rate of CKLP1 to levcromakalim at 24 hours", "setting": "[3]; CKLP1 10 mM, ALP 0.2 U/100 μL", "result": 13.7, "unit": "%"}, {"measurement": "conversion of CKLP1 to levcromakalim, maximum", "setting": "[3]; CKLP1 fixed 10 mM (0.4%), ALP 0.0002-0.2 U/100 μL, up to 72 hours, pH 10, 37° C.", "result": "≤ 21", "unit": "%"}, {"measurement": "conversion of CKLP1 to levcromakalim", "setting": "acid phosphatase", "result": "not"}, {"measurement": "IOP lowered by", "setting": "[4]", "result": "~16", "unit": "%"}, {"measurement": "conversion of CKLP1 to levcromakalim", "setting": "5′-nucleotidase", "result": "not"}, {"measurement": "diastolic pressure following treatment", "setting": "[5]; baseline 68.1±6.0, p=0.13", "result": "76.0±8.2", "unit": "mmHg"}, {"measurement": "systolic pressure after treatment", "setting": "[5]; baseline 118.7±12.0, p=0.6", "result": "121.1±7.3", "unit": "mmHg"}, {"measurement": "IOP lowered by", "setting": "mice (IOP)", "result": "approximately 17%"}]}]}
